# From patent publication US20070099881A1, “Method of treating wounds by enhancing expression of procollagen” (priority 2001, published 2007)
# “Also recorded” adds a separate entry of the source.
# Key:
# HF 250 cells = assay: Cell number and morphology of fibroblasts grown on collagen or plastic; type: cell-based, human; conditions: 3 μg/ml, 24 hours
# Method: (§1) Equal numbers of fibroblasts were plated onto tissue culture plastic dishes or collagen-coated Petri dishes. Four confluent 10 cm dishes of HF 250 cells were split in half and the cells replated in four 10 cm collagen-coated and four uncoated dishes. Two collagen-coated dishes and two uncoated dishes received 3 μg/ml of oxandrolone. The two remaining collagen-coated and uncoated dishes received an equal volume of 10% dimethyl-sulfoxide alone. After 24 hours of incubation, the medium was removed and the dishes rinsed with phosphate buffered saline. Northern blot analysis was used to determine the levels of both type I and type III procollagen mRNA expression. Total RNA was extracted from culture cells, using the Total RNA Isolation kit (Ambion, Inc; Austin, Tex.) following the supplier's instructions. Type I and type III procollagen cDNAs were purchased from American Type Culture Collection (Manassas, Va.). The human α1 (I) (HF677) and α1 (III) (HF934) procollagen cDNAs were enzymatically cleaved, purified, and subsequently end-labeled with ^32P dCTP (New England Nuclear, Boston, Mass.) to generate specific cDNA probes.
# By 24 hours, the density of cells on the plastic surface appeared greater than the density of cells grown on collagen. […] See, e.g., Greco and Ehrlich (1992).
# type I procollagen mRNA = assay: Northern blot of type I procollagen mRNA in HF 250 fibroblasts grown on collagen or plastic; type: cell-based, human; conditions: 3 μg/ml, 24 hours, vs 10% dimethyl sulfoxide alone; for expression of type I procollagen mRNA (ratio to GAPDH mRNA density) relative to control: fibroblasts grown on collagen; for expression of type I procollagen mRNA relative to control: fibroblasts grown on plastic
# Method: (§2) A primary cell line of normal human dermal fibroblasts (HF 250) was derived from the outgrowth of cells from explants of discarded foreskin. Fibroblasts were maintained in Dulbecco's modification of Eagles medium (DMEM) supplemented with 10% fetal bovine serum (FBS). Cells were grown to confluence and passed 1:1 by trypsinization. HF 250 cells were used between their 5th and 7th passages.
# (§3) Acid-soluble collagen was isolated from rat tail tendons by acetic acid extraction. Briefly, rat tail tendons were teased from adult rat tails and stirred in ice cold 0.5 M acetic acid for 2 days. The solubilized collagen was cleared by centrifugation and the supernatant made 10% in respect to NaCl w/v. The precipitated collagen was collected by centrifugation, resuspended in 1 mM HCl, dialyzed exhaustively against 1 mM HCl, frozen, lyophilized, weighed, resuspended in sterile ice cold 1 mM HCl at 5 mg/ml and stored at 4° C. until needed. The bottoms of 10 cm Petri dishes were covered with cold, sterile collagen solution. Any free collagen solution was removed with a Pasteur pipette and the coated dishes placed in a 37° C. incubator, where they were incubated overnight to allow complete polymerization of the collagen-coated surface.
# (§4) To optimize collagen synthesis and processing by cultured fibroblasts, the culture medium was supplemented with 50 μg/ml of vitamin C as L-ascorbic acid 2-phosphate sesquimagnesium salt (Sigma Chemical Co., St. Louis, Mo.). Oxandrolone was the anabolic steroid tested, and it was supplied by Bio-Technology General Corp., Iselin, N.J. A stock solution of oxandrolone was made in a 10% dimethyl-sulfoxide solution.
# as §1, with “Type I and type III procollagen cDNAs were purchased from American Type Culture Collection (Manassas, Va.). The human α1 (I) (HF677) and α1 (III) (HF934) procollagen cDNAs were enzymatically cleaved, purified, and subsequently end-labeled with ^32P dCTP (New England Nuclear, Boston, Mass.) to generate specific cDNA probes.” left out
# (§5) Total extracted RNA was subjected to agarose gel electrophoresis and blotted on a nylon membrane. […] The x-ray film was developed and quantitative analysis done by densitometry. […] The quantities of type I and type III procollagen α1 mRNAs and GAPDH mRNA were determined by densitometry. […]
# [1] = test system: normal human dermal fibroblasts (HF 250); assay: Pilot study: collagen produced by fibroblast cultures, pepsin extraction and SDS-PAGE of collagen α chains; type: cell-based; conditions: 0, 1, 3, 10 or 30 μg/ml tested, 24 hours, ascorbate 50 μg/ml, Coomassie-stained SDS-PAGE; data not shown
# Method: as §2, §4
# An initial pilot study was conducted to determine the concentration of anabolic steroid that would maximize collagen synthesis, as follows. After fibroblast cultures became confluent in 2 days, the culture medium was replaced with a medium supplemented with ascorbate at 50 μg/ml. To each dish, a different concentration of oxandrolone was added (0, 1, 3, 10 or 30 μg/ml). Dishes were incubated for 24 hours in a water saturated atmosphere at 37° in 95% air, 5% CO2. […]
# [2] = test system: type III procollagen mRNA; assay: Northern blot of type III procollagen mRNA in HF 250 fibroblasts grown on collagen or plastic; type: cell-based, human; conditions: 3 μg/ml, 24 hours, vs 10% dimethyl sulfoxide alone; for increase of type III procollagen mRNA expression (ratio to GAPDH mRNA density) relative to control: fibroblasts grown on collagen; for expression of type III procollagen mRNA relative to control: fibroblasts grown on plastic
# Method: as §2, §3, §4
# as §1, with “Type I and type III procollagen cDNAs were purchased from American Type Culture Collection (Manassas, Va.). The human α1 (I) (HF677) and α1 (III) (HF934) procollagen cDNAs were enzymatically cleaved, purified, and subsequently end-labeled with ^32P dCTP (New England Nuclear, Boston, Mass.) to generate specific cDNA probes.” left out
# as §5
smiles,measurement,setting,value
"C[C@]12COC(=O)C[C@@H]1CC[C@@H]1[C@@H]2CC[C@@]2(C)[C@H]1CC[C@]2(C)O [Oxandrolone, 17-methyl-17-hydroxy-2-oxa-5-androstan-3-one]",cell morphology,HF 250 cells,no obvious difference
same,number of fibroblasts,HF 250 cells,did not affect
same,expression of type I procollagen mRNA (ratio to GAPDH mRNA density) relative to control,type I procollagen mRNA,doubled; also recorded: increased
same,expression of type I procollagen mRNA (ratio to GAPDH mRNA density) relative to control,type I procollagen mRNA; listed as oxandrolone,doubles
same,expression of type I procollagen mRNA relative to control,type I procollagen mRNA,did not noticeably change; also recorded: minimal effect
same,expression of type I procollagen mRNA relative to control,type I procollagen mRNA; listed as oxandrolone,minimal change
same,concentration giving the maximal intensity of collagen α chain staining,[1],3 µg/mL
same,increase of type III procollagen mRNA expression (ratio to GAPDH mRNA density) relative to control,[2],enhanced
same,increase of type III procollagen mRNA expression (ratio to GAPDH mRNA density) relative to control,[2]; listed as oxandrolone,11 fold
same,expression of type III procollagen mRNA relative to control,[2],enhanced
same,expression of type III procollagen mRNA relative to control,[2]; listed as oxandrolone,minimal change; also recorded: minimal effect
